In publication PMC6930524, “A Prospective Repurposing of Dantrolene as a Multitarget Agent for Alzheimer’s Disease” (Molecules, 2019):

What was measured:
[1] = target: T1, Tau hexapeptide (306)VQIVYK(311) (PHF6) (Homo sapiens, UniProt P10636); test: Inhibition of PHF6 self-aggregation (ThT fluorescence, TFE cosolvent); format: biochemical; conditions: inhibitor 25 μM, PHF6 50 μM
T1 construct: Tau hexapeptide (306)VQIVYK(311) (PHF6); purchased JPT Peptide Technologies GmbH, Berlin, Germany; host or cells: synthetic peptide
Text: As an additional proof of the potential of DAN in interfering with AD-related processes, we investigated the effects on the in vitro self-aggregation of beta amyloid peptide 1–40 (Aβ40) and Tau hexapeptide (306)VQIVYK(311) (PHF6). Aβ40 is used as an in vitro probe of the fibrillization process leading to amyloid fibrils and ultimately to senile plaques in AD [32], while PHF6 represents the highly proaggregating sequence of the repeated domain R3 of Tau protein, responsible of the formation of neurofibrillary tangles and other tauopathies in NDs. […]
Highly aggregating hexapeptide Ac-VQIVYK-NH2 (trifluoroacetate salt; JPT Peptide Technologies GmbH, Berlin, Germany) was used as mimic of tau fibrillization in vitro. […] Incubation samples were prepared in black low-binding, flat-bottomed polystyrene 96-well microtiter plates, containing PHF6 (final conc. 50 μM), inhibitor (25 μM) and ThT (10 μM) in a final volume of 180 μL, and immediately read with Tecan Infinite M1000 Pro instrument. Samples were set in triplicate and their fluorescence values subtracted of the blank. […] Fluorescence was measured at 440/485 excitation/emission wavelength within 2 h at 25 °C. Endpoint fluorescence values (arbitrary fluorescence units, AFU) were used for the calculation of residual aggregation as in Equation (1): % residual aggregation = 100 × AFUsample/AFUcontrol(1)

[2] = target: T2, beta amyloid peptide 1–40 (Aβ40) (Homo sapiens, UniProt P05067); test: Inhibition of Aβ40 self-aggregation (ThT fluorescence, 2% HFIP); format: biochemical; conditions: inhibitor 100 μM, Aβ40 30 μM
T2 construct: beta amyloid peptide 1–40 (Aβ40); purchased Sigma-Aldrich Europe (Milan, Italy)
T2 sequence (P05067 672-711 limits assumed): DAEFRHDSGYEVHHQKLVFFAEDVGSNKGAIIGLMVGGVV
Text: As an additional proof of the potential of DAN in interfering with AD-related processes, we investigated the effects on the in vitro self-aggregation of beta amyloid peptide 1–40 (Aβ40) and Tau hexapeptide (306)VQIVYK(311) (PHF6). Aβ40 is used as an in vitro probe of the fibrillization process leading to amyloid fibrils and ultimately to senile plaques in AD [32], while PHF6 represents the highly proaggregating sequence of the repeated domain R3 of Tau protein, responsible of the formation of neurofibrillary tangles and other tauopathies in NDs. With this aim, we developed a fast screening method of Aβ40 aggregation using thioflavin T (ThT) as fluorescent probe and 2% 1,1,1,3,3,3-hexafluoro-2-propanol (HFIP) as aggregation enhancer. Regarding PHF6, we started from an already published methodology for the setup of an in-house method, with 2,2,2-trifluoroethanol (TFE) as the cosolvent. […] Quercetin was used as a standard reference for the inhibition of amyloid aggregation. The concentrations of inhibitors were 100 μM and 25 μM in Aβ40 and in PHF6 assay, respectively. […]
An already established assay was used in a 96-well plate procedure, using HFIP as aggregation enhancer. […] After addition of ThT, the fluorescence was read at 440/485 excitation/emission wavelength. […] Inhibition values were calculated by means of Prism.

O=C1CN(/N=C/c2ccc(-c3ccc([N+](=O)[O-])cc3)o2)C(O)=N1 [Dantrolene]
inhibition at 25 µM [1]: 32%
inhibition at 100 µM [2]: 56%
